This test addresses T1, GST-Aurora A (Homo sapiens, UniProt O14965).
T1 construct: N-terminal GST fusion with full length Aurora A (1-403 amino acids); purchased Carna Biosciences 05-101
T1 sequence (O14965 1-403): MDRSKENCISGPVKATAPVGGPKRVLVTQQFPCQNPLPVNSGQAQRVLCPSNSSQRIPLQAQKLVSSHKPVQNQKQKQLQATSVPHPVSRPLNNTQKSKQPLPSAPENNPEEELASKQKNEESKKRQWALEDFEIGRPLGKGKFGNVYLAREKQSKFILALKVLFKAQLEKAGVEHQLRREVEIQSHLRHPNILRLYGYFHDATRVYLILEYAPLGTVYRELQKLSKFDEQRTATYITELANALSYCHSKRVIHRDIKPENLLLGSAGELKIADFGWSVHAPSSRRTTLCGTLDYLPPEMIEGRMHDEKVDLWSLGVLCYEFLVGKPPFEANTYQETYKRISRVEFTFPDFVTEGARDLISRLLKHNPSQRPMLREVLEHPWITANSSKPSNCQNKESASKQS
As to the kind of experiment: Aurora A IC50, Caliper LC3000 mobility shift assay. In kind it is biochemical. As to conditions: LC3000 method; 15 uM ATP (the KM value); read-out: Aurora Kinase A Activity (IC50). The gist of the method: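 Readout: percent conversion of FITC-LRRASLG (1 uM) to phosphopeptide, resolved electrophoretically on a Caliper LC3000, fitted against inhibitor concentration for IC50. Reaction: N-terminal GST full-length Aurora A, ATP at its KM (15 uM), pH 7.5 HEPES with MgCl2/DTT, 25 C for 90 min.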
Consider `O=C(Nc1ccc(Nc2ccnc3[nH]c(=O)c4ccc(C(F)(F)F)cc4c23)cc1)c1ccccc1` [Compound 403, N-[4-(9-Trifluoromethyl-6-oxo-5,6-dihydro-benzo[c][1,8]naphthyridin-1-ylamino)-phenyl]-benzamide], for which the half-maximal inhibitory concentration (IC50) (usually the concentration at which inhibition is half-maximal) was less than 11 nM.
For `O=C(Nc1ccc(Nc2ccnc3[nH]c(=O)c4ccccc4c23)cc1)c1ccccc1OCCCN1CCOCC1` [Compound 357, 2-(3-morpholinopropoxy)-N-(4-(6-oxo-5,6-dihydrobenzo[c][1,8]naphthyridin-1-ylamino)phenyl)benzamide] the value was more than 100 nM.
Turning to `O=C(CN1CCC(Nc2ccnc3[nH]c(=O)c4ccccc4c23)CC1)Nc1ccccc1` [Compound 372, 2-(4-(6-Oxo-5,6-dihydrobenzo[c][1,8]naphthyridin-1-ylamino)piperidin-1-yl)-N-phenylacetamide], the IC50 lay within 11 to 100 nM.
`O=C(CN1CC(Nc2ccnc3[nH]c(=O)c4ccccc4c23)C1)Nc1ccccc1` [Compound 370, 2-(3-(6-Oxo-5,6-dihydrobenzo[c][1,8]naphthyridin-1-ylamino)azetidin-1-yl)-N-phenylacetamide]: the IC50 was more than 100 nM.
As for `Clc1nc2ncccc2c2cc(NCc3ccccc3)ccc12` [Example 53, Benzyl-(6-chloro-benzo[c][1,8]naphthyridin-9-yl)-amine], the figure is more than 100 nM; as for `O=C(Nc1ccccc1Nc1ccnc2[nH]c(=O)c3ccccc3c12)c1ccccc1` [Compound 392, N-[2-(6-Oxo-5,6-dihydro-benzo[c][1,8]naphthyridin-1-ylamino)-phenyl]-benzamide], more than 100 nM.
Take `O=C(CN1CCC(Nc2ccnc3[nH]c(=O)c4ccccc4c23)CC1)Nc1ccc(F)cc1` [Compound 374, N-(4-Fluorophenyl)-2-(4-(6-oxo-5,6-dihydrobenzo[c][1,8]naphthyridin-1-ylamino)piperidin-1-yl)acetamide]: the IC50 was in the range of 11 to 100 nM.
As for `O=C(Nc1ccc(Nc2ccnc3[nH]c(=O)c4c(C(=O)NCCN5CCOCC5)cccc4c23)cc1)c1ccc(F)cc1C(F)(F)F` [Compound 442, 1-[4-(4-Fluoro-2-trifluoromethyl-benzoylamino)-phenylamino]-6-oxo-5,6-dihydro-benzo[c][1,8]naphthyridine-7-carboxylic acid (2-morpholin-4-yl-ethyl)-amide], the figure is less than 11 nM; as for `O=C(Nc1ccc(Nc2ccnc3[nH]c(=O)c4ccccc4c23)cn1)c1ccccc1` [Compound 324, N-(5-(6-Oxo-5,6-dihydrobenzo[c][1,8]naphthyridin-1-ylamino)pyridin-2-yl)benzamide], 11 to 100 nM; as for `O=C(Nc1ccc(Oc2ccnc3[nH]c(=O)c4ccccc4c23)cc1F)c1cccn(-c2ccc(F)cc2)c1=O` [Example 187, 1-(4-Fluoro-phenyl)-2-oxo-1,2-dihydro-pyridine-3-carboxylic acid [2-fluoro-4-(6-oxo-5,6-dihydro-benzo[c][1,8]naphthyridin-1-yloxy)-phenyl]-amide], more than 100 nM.
As for `O=C(Nc1ccc(Nc2ccnc3[nH]c(=O)c4ccccc4c23)cc1)c1cc(F)cc(F)c1` [Compound 385, 3,5-Difluoro-N-[4-(6-oxo-5,6-dihydro-benzo[c][1,8]naphthyridin-1-ylamino)-phenyl]-benzamide], the figure is less than 11 nM.
For the compound `O=C(Cc1ccc(Nc2ccnc3[nH]c(=O)c4ccccc4c23)cc1)Nc1ccccc1` [Compound 303, 2-(4-(6-Oxo-5,6-dihydrobenzo[c][1,8]naphthyridin-1-ylamino)phenyl)-N phenylacetamide], the half-maximal inhibitory concentration (IC50) fell in the range of 11 to 100 nM.
As to `O=C(NCc1ccc(Nc2ccnc3[nH]c(=O)c4ccccc4c23)cc1)c1ccccc1` [Compound 327, N-(4-(6-oxo-5,6-dihydrobenzo[c][1,8]naphthyridin-1-ylamino)benzyl)benzamide], the IC50 fell in the range of 11 to 100 nM.
For `COc1cc2c(=O)[nH]c3nccc(Nc4ccc(F)cc4)c3c2cc1OC` [Example 215, 1-(4-Fluoro-phenylamino)-8,9-dimethoxy-5H-benzo[c][1,8]naphthyridin-6-one] the value was more than 100 nM; for `O=C(Nc1ccc(Nc2ccnc3[nH]c(=O)c4ccccc4c23)cc1)c1c(F)cccc1F` [Compound 388, 2,6-Difluoro-N-[4-(6-oxo-5,6-dihydro-benzo[c][1,8]naphthyridin-1-ylamino)-phenyl]-benzamide], less than 11 nM.
For `O=C(Nc1ccc(Nc2ccnc3[nH]c(=O)c4ccccc4c23)cc1)c1cccc(Cl)c1` [Compound 393, 3-Chloro-N-[4-(6-oxo-5,6-dihydro-benzo[c][1,8]naphthyridin-1-ylamino)-phenyl]-benzamide], the IC50 is less than 11 nM.
For `Cc1cc(Nc2ccnc3[nH]c(=O)c4ccccc4c23)n(CC(=O)Nc2ccc(F)c(F)c2)n1` [Compound 309, N-(3,4-difluorophenyl)-2-(3-methyl-5-(6-oxo-5,6-dihydrobenzo[c][1,8]naphthyridin-1-ylamino)-1H-pyrazol-1-yl)acetamide] the value was more than 100 nM; for `O=C(Nc1ccc(Nc2ccnc3[nH]c(=O)c4cc(F)ccc4c23)cc1)c1ccc(F)cc1C(F)(F)F` [Compound 414, 4-Fluoro-N-[4-(8-fluoro-6-oxo-5,6-dihydro-benzo[c][1,8]naphthyridin-1-ylamino)-phenyl]-2-trifluoromethyl-benzamide], less than 11 nM; for `CN(C)C(=O)c1ccc2c(=O)[nH]c3nccc(Nc4ccc(NC(=O)c5ccccc5)cc4)c3c2c1` [Compound 283, 1-(4-Benzamidophenylamino)-N,N-dimethyl-6-oxo-5,6-dihydrobenzo[c][1,8]naphthyridine-9-carboxamide], 11 to 100 nM.
With `O=C(CN1CCC(Nc2ccnc3[nH]c(=O)c4ccccc4c23)C1)Nc1ccccc1` (stereo not drawn) [Compound 371, 2-(3-(6-Oxo-5,6-dihydrobenzo[c][1,8]naphthyridin-1-ylamino)pyrrolidin-1-yl)-N-phenylacetamide], the IC50 is more than 100 nM.
`CN(C)CCN(C)Cc1ccc2c(=O)[nH]c3nccc(Nc4ccc(NC(=O)c5ccccc5)cc4)c3c2c1` [Compound 292, N-(4-(9-(((2-(Dimethylamino)ethyl)(methyl)amino)methyl)-6-oxo-5,6-dihydrobenzo[c][1,8]naphthyridin-1-ylamino)phenyl)benzamide]: the IC50 was in the range of 11 to 100 nM.
As for `CN1CCN(Cc2cccc(C(=O)Nc3ccc(Nc4ccnc5[nH]c(=O)c6ccccc6c45)cc3)c2)CC1` [Compound 354, 3-((4-Methylpiperazin-1-yl)methyl)-N-(4-(6-oxo-5,6-dihydrobenzo[c][1,8]naphthyridin-1-ylamino)phenyl)benzamide], the figure is more than 100 nM; as for `O=c1[nH]c2ncccc2c2cc(NCc3ccccc3[N+](=O)[O-])ccc12` [Compound 466, 9-(2-Nitrobenzylamino)benzo[c][1,8]naphthyridin-6(5H)-one], more than 100 nM.
For `Cc1ccccc1CNc1ccc2c(=O)[nH]c3ncccc3c2c1` [Example 46, 9-(2-Methyl-benzylamino)-5H-benzo[c][1,8]naphthyridin-6-one] the value was more than 100 nM; for `O=C(Cn1cc(Nc2ccnc3[nH]c(=O)c4ccc(F)cc4c23)cn1)Nc1ccc(C(F)(F)F)cc1` [Compound 422], 11 to 100 nM; for `O=C(Cc1cc(Nc2ccnc3[nH]c(=O)c4ccccc4c23)n[nH]1)Nc1ccc(F)c(F)c1` [Compound 313, N-(3,4-Difluorophenyl)-2-(3-(6-oxo-5,6-dihydrobenzo[c][1,8]naphthyridin-1-ylamino)-1H-pyrazol-5-yl)acetamide], more than 100 nM.
As for `O=C(Nc1ccccc1)C1(CNc2ccnc3[nH]c(=O)c4ccccc4c23)CC1` [Compound 363, 1-((6-Oxo-5,6-dihydrobenzo[c][1,8]naphthyridin-1-ylamino)methyl)-N-phenylcyclopropanecarboxamide], the half-maximal inhibitory concentration (IC50) is more than 100 nM.
For the compound `O=C(Nc1ccc(Nc2ccnc3[nH]c(=O)c4cc(Cl)ccc4c23)cc1)c1ccc(F)cc1C(F)(F)F` [Compound 415, 4-Fluoro-N-[4-(8-chloro-6-oxo-5,6-dihydro-benzo[c][1,8]naphthyridin-1-ylamino)-phenyl]-2-trifluoromethyl-benzamide], the concentration for half-maximal inhibition (IC50) is less than 11 nM.
With `O=C(Cn1cc(Nc2ccnc3[nH]c(=O)c4ccc(F)cc4c23)cn1)Nc1ccc(F)cc1` [Compound 421], the half-inhibitory concentration (IC50) was in the range of 11 to 100 nM.
For `O=C(Nc1ccc(Nc2ccnc3[nH]c(=O)c4ccccc4c23)cc1F)c1ccccc1` [Compound 320, N-(2-Fluoro-4-(6-oxo-5,6-dihydrobenzo[c][1,8]naphthyridin-1-ylamino)phenyl) benzamide], the 50% inhibitory concentration (IC50) was in the range of 11 to 100 nM.
As for `CCN(Cc1ccccc1)c1ccc2c(=O)[nH]c3ncccc3c2c1` [Compound 449, 9-(Benzyl(ethyl)amino)benzo[c][1,8]naphthyridin-6(5H)-one], the figure is more than 100 nM; as for `O=C(O)c1ccc2c(=O)[nH]c3nccc(Nc4ccc(NC(=O)c5ccccc5)cc4)c3c2c1` [Compound 281, 1-(4-Benzamidophenylamino)-6-oxo-5,6-dihydrobenzo[c][1,8]naphthyridine-9-carboxylic acid], less than 11 nM.
Regarding `O=C(Nc1ccc(Nc2ccnc3[nH]c(=O)c4ccccc4c23)cc1)c1ccc(F)c(F)c1` [Compound 384, 3,4-Difluoro-N-[4-(6-oxo-5,6-dihydro-benzo[c][1,8]naphthyridin-1-ylamino)-phenyl]-benzamide], the IC50 is less than 11 nM.

The values above are taken from patent US8735584B2 (Merck Patent GmbH, priority 2008, dated 2014).
